Measurements published in US8178506B2, “Oligomeric compounds and compositions for use in modulation of small non-coding RNAs” (Regulus Therapeutics Inc., priority 2003, dated 2012).

Legend:
mir-143 binding sites = assay: pGL3-mir-143 sensor luciferase assay in HeLa cells; format: cell-based, human; conditions: Table 41, pGL3-mir-143 sensor, 24 hours
[1] = tested on: bulged mir-143 target sequence; assay: pGL3-bulge(×3) luciferase assay in HeLa cells; format: cell-based, human; conditions: 24 hours; for luciferase activity from pGL3-bulge(×3): HeLa, 11, 33 and 100 nM; for luciferase expression: HeLa cells
Experimental: An expression system based on the pGL3-Control (Promega Corp., Madison Wis.) reporter vector and comprising predicted miRNA binding sites was used in transient transfections of HeLa cells with plasmids expressing oligomeric compounds mimicking miRNAs, pre-miRNAs or pri-miRNAs in order to assess the ability of these miRNA mimics to bind and regulate the expression of the luciferase reporter. The effect of increasing the copy number of the miRNA-binding site in the target was also tested by including multiple binding sites in artificial reporter constructs. It is understood that the presence of multiple miRNA-binding sites in a target can include binding sites for different miRNAs.
The following reporter plasmids were constructed by cloning the specified fragment into the XbaI site of the pGL3-control plasmid, placing the potential miRNA-binding site in the 3′-UTR of the luciferase reporter: The reporter plasmid pGL3-bulge(×3) contains three contiguous copies of the sequence ([…]; herein incorporated as SEQ ID NO: 874) which represents a sequence complementary to the mir-143 miRNA except that it is missing 2 nucleotides such that the mir-143 miRNA is presumed to adopt a bulged structure when it hybridizes to this target sequence. The pGL3-GLO1 reporter plasmid contains a DNA fragment comprising the 3′-UTR of the GLO1 sequence; this fragment was PCR-amplified using a primer beginning at nucleotide number 621 of the GLO1 sequence (GenBank Accession NM_006708.1, SEQ ID NO: 821) and the downstream primer hybridizing to the poly A tail. The pGL3-PP2A reporter plasmid contains a DNA fragment comprising the 3′-UTR of the PP2A gene; this fragment was PCR-amplified using a primer beginning at nucleotide number 921 of the PP2A sequence (GenBank Accession NM_004156.1) and the downstream primer hybridizing to the poly A tail. The reporter plasmid pGL3-ERK5-3′-UTR(×1) contains one copy of the sequence […] (herein incorporated as SEQ ID NO: 875), found in the 3′-UTR of ERK5 and predicted by Lewis, et al. to be bound by the mir-143 miRNA, and the reporter plasmid pGL3-ERK5-3′UTR(×3) has three contiguous copies of this sequence. The reporter plasmid pGL3-ERK5-3′UTR(ext) contains one copy of the sequence […] (herein incorporated as SEQ ID NO: 876), which includes an additional ten nucleotides at either end of the mir-143 binding site in 3′-UTR of ERK5 predicted by Lewis, et al. (Lewis et al., Cell, 2003, 115, 787-798). The plasmids pGL3-ERK5-cds(×1), pGL3-ERK5-cds(×2), pGL3-ERK5-cds(×3), and pGL3-ERK5-cds(×5) contain one, two, three or five contiguous copies, respectively, of the novel mir-143 binding site ([…]; herein incorporated as SEQ ID NO: 877) we identified within the coding sequence of ERK5. The unmodified pGL3-Control luciferase reporter vector was used as a negative control, and the pGL3-mir-143 sensor reporter plasmid was used as a positive control.
HeLa cells were routinely cultured and passaged as described. In some embodiments, HeLa cells were transfected with 0.05 μg of the relevant pGL3-sensor plasmid and 0.01 μg pRL-CMV plasmid. Additionally, in some embodiments, cells were treated at various dosages (11 nM, 33 nM, and 100 nM) with the following oligomeric compound mimics: 1) ds-mir-143, or 2) ds-Control as described. In accordance with methods described in Example 12, a luciferase assay was performed 24-hours after transfection. The results, shown in Tables 40 and 41, are an average of three trials. Data are presented as percent untreated control (luciferase plasmid only, not treated with oligomeric compound) luciferase expression, normalized to pRL-CMV levels.

Question: Which results are given for “ds-mir-143: double-stranded RNA of ISIS 342199 hybridized to its perfect complement ISIS 342200 (sense UGAGAUGAAGCACUGUAGCUCA; antisense UGAGCUACAGUGCUUCAUCUCA; RNA, backbone not given here)”?
Answer: luciferase expression (mir-143 binding sites; 11 nM): 15.0 percent untreated control; luciferase expression (mir-143 binding sites; 33 nM): 15.0 percent untreated control; luciferase expression (mir-143 binding sites; 100 nM): 11.1 percent untreated control; luciferase activity from pGL3-bulge(×3) [1]: dose-dependent inhibition of luciferase activity; luciferase activity from pGL3-bulge(×3) ([1]; listed as mir-143 dsRNA mimic compound): inhibited luciferase activity from the pGL3-bulge(×3) sensor plasmid in a dose-dependent manner; luciferase expression ([1]; Table 40, pGL3-bulge(x3), 11 nM): 50.7 percent untreated control; luciferase expression ([1]; Table 40, pGL3-bulge(x3), 33 nM): 35.4 percent untreated control; luciferase expression ([1]; Table 40, pGL3-bulge(x3), 100 nM): 17.2 percent untreated control; luciferase expression ([1]; Table 41, pGL3-bulge(x3), 11 nM): 36.1 percent untreated control; luciferase expression ([1]; Table 41, pGL3-bulge(x3), 33 nM): 33.9 percent untreated control; luciferase expression ([1]; Table 41, pGL3-bulge(x3), 100 nM): 22.2 percent untreated control
